Broadly, the solubility is the dissolved amount per volume that the medium holds.

Converted amounts (≈) assume the structure as drawn. Read-outs that look alike come from different tables or passages of the source.

Here are results for three compounds from patent US11045438B2, “Cysteine composition and injection” (Exela Sterile Medicines LLC, priority 2019, dated 2021).

A short description of one data set: physchem. The note with it: 22 °C. The text has this: Cystine, a sulfur-sulfur dimer of cysteine, can form in the presence of oxygen (air) in cysteine solutions. Cystine, especially the free base, is several orders of magnitude less soluble in aqueous solutions than cysteine, and the solubility of cystine decreases as the pH increases.
The conditions of data set [1]: cited from earlier work.
Setting [2] is: aqueous with cosolvent or surfactant or cyclodextrin.

Take `N[C@@H](CS)C(=O)O` [Cysteine free base, Cysteine]: in “physchem” (water), the concentration in solution (solubility) came to 18700 µg/mL (≈ 155000 µM).

Regarding `Cl.Cl.N[C@@H](CSSC[C@H](N)C(=O)O)C(=O)O` [Cystine Dihydrochloride], the solubility in “physchem” (setting [2]) was 9930 µg/mL; in the data set “physchem” (water), 1040 µg/mL.

In the case of `N[C@@H](CSSC[C@H](N)C(=O)O)C(=O)O` [Cystine free Base, Cystine], the solubility in the data set “physchem” (setting [2]) was 590 µg/mL (≈ 2460 µM); in “physchem” (water), 140 µg/mL (≈ 583 µM); in data set [1] (pH 1.0) it was “approximately 4 mg/mL”; in data set [1] (pH 1.4) it was “approximately 1 mg/ml”.
